Reference: US11492618B2, “Expression control using a regulatable intron” (ASKLEPIOS BIOPHARMACEUTICAL, INC., priority 2017, dated 2022)

Legend:
HEK293 cells [1] = assay: SEAP activity from intron-containing SEAP construct after DTT induction; type: cell-based, human
Experimental: (§1) Experiments were performed essentially as described in the above methods, namely, HEK or CHO-s cells were transfected with the aforementioned construct (pMA-RQ) and incubated for 24 hrs. After this time the activating compound DTT was added at 2 mM final concentration, SEAP activity was then measured at 3, 5 and 24 hrs post-induction.
(§2) The protocol for transfection for 24 well plates was as described in Example 1. Thereafter: • Supernatant was measured for SEAP activity after 24 hrs. • Intron splicing from the SEAP construct was measured after addition of either 2 mM DTT by monitoring of SEAP activity after 3, 5 and 24 hrs. • SEAP activity was measured as per manufacturer's instructions, Roche, SEAP reporter gene assay kit, obtained from Sigma-Aldrich, Cat. No. 11 779 842 001.

CHO cells = assay: as above; type: cell-based, Chinese hamster
Experimental: as §1, §2

HEK293 cells [2] = assay: Cell death (trypan blue) after induction of intron-controlled caspase 9; type: cell-based, human; settings: HEK293 with SYNP-CASP9-INT, DTT 2 mM
Experimental: Transfection was performed as previously described. DTT was added at 2 mM and forskolin was added at 10 μM. The latter was carried out to determine whether forskolin could induce the removal of the intron. Amongst other things, forskolin has potential gene therapy applications. Induction of intron removal was measured as function of cell death, with higher cell death an indicator of removal of the intron.
Experiments were performed as described in the methods namely, HEK or CHO-s cells were transfected with the aforementioned construct and incubated for 24 h. After this time the activating compound DTT or Forskolin was added, % cell death was then measured at 3, 5 and 24 h post-induction.
Induction of intron was measured as function of cell death, using the Countess II cell counter (Thermofisher). Cells were stained with trypan blue to ascertain cell viability. 10 μl of cell suspension was added to a Haemocytomer and analysed on the countess.

UPR = assay: Induction of UPR by candidate inducers, EGFP read-out from SYNP-ATF6-02; type: cell-based, human; settings: HEK293F with SYNP-ATF6-02; DTT 2 mM, palmitate 0.5 mM, MF-43 1 μM; 0-24 hrs
Experimental: Experiments were performed to assess the ability of several candidate agents to induce the UPR. The ability of these candidate inducers to induce UPR was assessed using the techniques essentially as described above. The additional candidates tested were 0.5 mM palmitic acid, 1 uM MF-43 (2-methyl-5-(6-(4-(2-(trifluoromethyl)phenoxy)piperidin-1-yl)pyridazin-3-yl)-1,3,4-thiadiazole), which is an inhibitor of stearoyl-CoA desaturase, and a combination of both of these (for the same concentrations of each was used).
In these experiments transfections were done in 24-well plates as previously described. The SYNP-ATF6-02 plasmid (i.e. SYNP-ATF6-02 in pMA-RQ vector) was transfected into HEK293F cells and after 24 hrs GFP was measured. Induction of the UPR was then stimulated using the aforementioned inducers and samples were taken and measured at 0, 1, 3, 5 and 24 hrs after induction. GFP expression was measured as previously described. Results are the average of 3 individual experiments and the error bars represent the standard deviation.
Experimental procedure in brief: • 40 ml of cells were grown in a 250 ml vented Erlenmeyer flask (Sigma-Aldrich CLS431144) at 37° C., 8% CO2 with agitation at 100 rpm. […]
AAV production on induction of UPR: The ATF6 plasmid (i.e. SYNP-ATF6-02 in pMA-RQ vector) was transfected into HEK293 cells as previously described. 24 hrs later GFP was measured. […] EGFP fluorescence was then measured after 1, 3, 5 and 24 hrs. […]

HEK293-F cells = assay: Luciferase expression from UPR-inducible promoters with different minimal promoters after 2 mM DTT; type: cell-based, human
From the text: The purpose of this experiment was to test the ATF6-containing UPR-responsive cis-regulatory element (also referred to herein as an enhancer) as used in the examples above with different minimal promoters and to further assess their inducibility and tightness of control. To this end, the ATF6-containing UPR-responsive cis-regulatory element was operably linked to the CMV-MP and MinTK (herpes thymidine kinase minimal promoter) minimal promoters The constructs were synthesised by GeneART by chemical synthesis, as above.
As described above, the enhancer sequence contains 6 repeats of the sequence TGACGTGCT (which contains the ATF6 consensus sequence, TGACGTG) spaced by 20 bp spacer sequences. The enhancer sequence was coupled to either MinTK (in construct ATF06-MP001) or CMV-MP (in construct ATF06-MP002).
Transfection of HEK293-F cells was performed as previously described. DTT was added at a concentration of 2 mM. Luciferase activity was measured as previously described. The results are shown in FIG. 17—the DTT was added at time=0 h as shown on the X-axis (units are hours).

CHO-S cells = assay: EGFP fluorescence from regulatable-intron construct before and after UPR induction with 2 mM DTT; type: cell-based, Chinese hamster
Experimental: (§3) The standard protocol for transfection of these cells was modified for 24 well plates as follows: • 40 ml of cells were grown in a 250 ml vented Erlenmeyer flask (Sigma-Aldrich CLS431144) at 37° C., 8% CO2 with agitation at 100 rpm. Cells were seeded as described in the manufacturer's instructions. • 1 day before transfection cells were counted using a haemocytometer and split to 500,000 cells/ml. • On the day of transfection cells are seeded to 1 million cells/ml in 500 μl of appropriate medium in a 24 well plate. • 0.625 μg of DNA/well was then added to 10 μl of OptiMem medium (Thermofisher; 11058021) and incubated for 5 minutes at room temperature. • Concurrently 0.625 μl of Max reagent was made up to 10 μl by addition of OptiMem and incubated for 5 minutes at room temperature. • After this incubation both mixes were added to the same tube and incubated at room temperature for 25-30 minutes. • The DNA/Max reagent mix (20 μl/well) was then added directly to the cells and the cells incubated as described previously. • Cells were then measured for GFP fluorescence after 24 hrs. • Intron splicing from the GFP construct was measured via addition of 2 mM DTT and monitoring of GFP fluorescence after 1 hr. DTT is a strong reducing agent which induces ER stress by disrupting the formation of disulphide bonds within the ER. […]

HEK293F cells = assay: as above; type: cell-based, human
Experimental: as §3

SEAP-ATF6-001: SEAP expression construct with 6×ATF6 spaced by 20 bp, CMV-MP and regulatable intron (SEQ ID NO: 34)
SEAP expression after 24 h higher than CMV-IE (HEK293 cells [1]; HEK293, 2 mM DTT, 24 h): ~2 fold | SEAP expression before induction (HEK293 cells [1]; HEK293, no DTT): no SEAP expression | SEAP expression after 24 h higher than CMV-IE (CHO cells; 2 mM DTT, 24 h, CMV-IE shown in HEK293): ~2 fold | SEAP expression before induction (CHO cells; no DTT): no SEAP expression

O[C@H](CS)[C@H](O)CS (racemic) [DTT, Dithiothreitol]
time after treatment at which % of dead cells is equal to the positive control (HEK293 cells [2]): 5 h | number of dead cells after 3 h (HEK293 cells [2]; 3 h): close to the control construct which contained no intron | induction of UPR indicated by expression of functional EGFP (UPR): very potent inducer of the UPR

Cc1nnc(-c2ccc(N3CCC(Oc4ccccc4C(F)(F)F)CC3)nn2)s1 [MF-43, 2-methyl-5-(6-(4-(2-(trifluoromethyl)phenoxy)piperidin-1-yl)pyridazin-3-yl)-1,3,4-thiadiazole]
induction of UPR indicated by expression of functional EGFP (UPR): effectively induced the UPR

CCCCCCCCCCCCCCCC(=O)O [palmitate, palmitic acid]
induction of UPR indicated by expression of functional EGFP (UPR): effectively induced the UPR

ATF06-MP001: ATF6 enhancer (6 repeats, 20 bp spacers) coupled to MinTK driving luciferase (SEQ ID NO: 59)
inducibility of luciferase expression by DTT (HEK293-F cells; 2 mM DTT): good inducibility | luciferase expression after induction of the UPR versus CMV-IE promoter (HEK293-F cells; 2 mM DTT): significantly higher than provided by the constitutive CMV-IE promoter | luciferase expression prior to addition of DTT (HEK293-F cells; before 2 mM DTT): negligible expression

SYNP-XBP-01: CMV-MP controlling expression of EGFP with XBP1 intron (SEQ ID NO: 28), in plasmid pMA-RQ
GFP fluorescence induced upon addition of 2 mM DTT (CHO-S cells; 2 mM DTT): > 1000 fold | background GFP fluorescence before induction (CHO-S cells; no DTT): no background at all | GFP production induced upon inducing ER-Stress (HEK293F cells; 2 mM DTT, 1 hr after treatment, 3 independent experiments): 4-10 fold | resultant GFP activity higher than the positive control (HEK293F cells; after 2 mM DTT, control CMV-MP-GFP): 2.5-7 fold | background GFP fluorescence before induction (HEK293F cells; no DTT, versus control): considerably lower than the control
